# Experimental data as given in patent US20080194614A1, “Combination of Organic Compounds” (priority 2005, published 2008).
# Tests used:
# [1] = 4-week toxicity study in rats; format: in vivo
# Protocol: (§1) Rapamycin or derivatives thereof are well tolerated at dosages required for use in accordance with the present invention. For example, the NTEL for Compound A in a 4-week toxicity study is 0.5 mg/kg/day in rats and 1.5 mg/kg/day in monkeys.
# [2] = 4-week toxicity study in monkeys; format: in vivo
# Protocol: as §1
structure (smiles),measurement,setting,value
"CO[C@H]1C[C@@H]2CC[C@@H](C)[C@@](O)(O2)C(=O)C(=O)N2CCCC[C@H]2C(=O)O[C@H]([C@H](C)C[C@@H]2CC[C@@H](OCCO)[C@H](OC)C2)CC(=O)[C@H](C)/C=C(\C)[C@@H](O)[C@@H](OC)C(=O)[C@H](C)C[C@H](C)/C=C/C=C/C=C/1C [Compound A, 40-0-(2-hydroxyethyl)-rapamycin]",NTEL,[1],0.5 mg/kg/day
same,NTEL,[2],1.5 mg/kg/day
